Reference: patent US20070155795A1, “MUSCARINIC AGONISTS” (ACADIA Pharmaceuticals Inc., priority 2000, published 2007)

Columns and labels:
[1] = molecular target: T1, m4 muscarinic receptor subtype (Homo sapiens, UniProt P08173); test: R-SAT assay, muscarinic receptor subtype m4; format: cell-based; conditions: transfected NIH-3T3 cells, 5 days; for m4 % Eff: relative to maximum response to carbachol
T1 construct: expressed in transfected cells; host or cells: NIH-3T3 (ATCC CRL 1658)
T1 sequence (P08173 1-479): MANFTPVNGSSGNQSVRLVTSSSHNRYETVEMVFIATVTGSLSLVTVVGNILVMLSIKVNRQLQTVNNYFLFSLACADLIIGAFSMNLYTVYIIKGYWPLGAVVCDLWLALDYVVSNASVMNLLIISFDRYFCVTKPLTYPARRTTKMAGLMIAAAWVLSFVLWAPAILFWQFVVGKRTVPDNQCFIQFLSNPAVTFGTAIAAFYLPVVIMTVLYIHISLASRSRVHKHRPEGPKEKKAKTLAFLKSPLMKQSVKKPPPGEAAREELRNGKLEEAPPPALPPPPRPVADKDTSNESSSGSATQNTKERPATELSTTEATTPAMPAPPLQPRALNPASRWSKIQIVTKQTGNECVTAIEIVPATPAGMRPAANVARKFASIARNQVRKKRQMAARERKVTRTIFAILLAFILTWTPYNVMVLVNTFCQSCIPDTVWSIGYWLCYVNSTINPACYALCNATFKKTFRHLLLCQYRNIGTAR
Procedure: (§1) Transfected cells were grown in the presence of between 1 nM and 40 μM of the test compound for 5 days. On day 5, the cells were lysed using 0.5% Nonidet-P and β-galactosidase expression was quantified using the chromogenic substrate o-nitrophenyl-β-D-galactoside (ONGP).
(§2) Data were normalized relative to the maximum response of the cells to the muscarinic agonist carbachol, and the following equation was fitted to the data: • response=minimum+(maximum−minimum)/(1+(EC50/[ligand])) • Where [ligand]=ligand concentration. • % Efficacy was defined as: • (maximum−minimum)/(maximum response of cells to carbachol). • pEC50=−log (EC50). • Where data gave a bell-shaped curve, “maximum” was defined as the highest observed response.

[2] = molecular target: T2, m5 muscarinic receptor subtype (Homo sapiens, UniProt P08912); test: R-SAT assay, muscarinic receptor subtype m5; format: cell-based; conditions: transfected NIH-3T3 cells, 5 days, relative to maximum response to carbachol
T2 construct: expressed in transfected cells; host or cells: NIH-3T3 (ATCC CRL 1658)
T2 sequence (P08912 1-532): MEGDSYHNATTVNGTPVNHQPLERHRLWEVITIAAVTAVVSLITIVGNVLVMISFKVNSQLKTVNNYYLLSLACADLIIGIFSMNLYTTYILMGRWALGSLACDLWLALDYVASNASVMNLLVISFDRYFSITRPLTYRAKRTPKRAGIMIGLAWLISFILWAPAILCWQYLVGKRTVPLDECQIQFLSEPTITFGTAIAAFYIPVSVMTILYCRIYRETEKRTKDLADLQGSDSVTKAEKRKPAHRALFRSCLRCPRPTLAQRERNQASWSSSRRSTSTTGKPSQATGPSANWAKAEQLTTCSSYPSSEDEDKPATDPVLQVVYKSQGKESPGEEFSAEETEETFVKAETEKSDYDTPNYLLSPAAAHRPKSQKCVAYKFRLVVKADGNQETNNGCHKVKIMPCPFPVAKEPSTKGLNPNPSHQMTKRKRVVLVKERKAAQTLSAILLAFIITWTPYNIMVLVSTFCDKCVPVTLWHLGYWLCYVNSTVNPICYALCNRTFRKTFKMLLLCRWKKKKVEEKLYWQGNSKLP
Procedure: (§3) Screening Of Test Compounds In An Assay Using Muscarinic Receptor Subtypes m1, m2, m3, m4 and m5. The m1, m2, m3, m4 and m5 muscarinic receptor subtypes were cloned substantially as described by Bonner et al., Science […] and Bonner et al., Neuron 1:403 (1988). R-SAT assays were carried out substantially as described in U.S. Pat. Nos. 5,707,798, 5,912,132, and 5,955,281, and by Braüner-Osborne & Brann, Eur. J. Pharmacol. 295:93 (1995). NIH-3T3 cells (available from the American Type Culture Collection as ATCC CRL 1658) were transfected with plasmid DNA encoding the m1, m2, m3, m4 or m5 receptors and plasmid DNA encoding β-galactosidase. Transfected cells were grown in the presence of between 1 nM and 40 μM of the test compound for 5 days. On day 5, the cells were lysed using 0.5% Nonidet-P and β-galactosidase expression was quantified using the chromogenic substrate o-nitrophenyl-β-D-galactoside (ONGP).
as §2

[3] = molecular target: T3, m1 muscarinic receptor subtype (Homo sapiens, UniProt P11229); test: R-SAT assay, muscarinic receptor subtype m1; format: cell-based; conditions: transfected NIH-3T3 cells, 5 days; for m1 % Eff: relative to maximum response to carbachol
T3 construct: expressed in transfected cells; host or cells: NIH-3T3 (ATCC CRL 1658)
T3 sequence (P11229 1-460): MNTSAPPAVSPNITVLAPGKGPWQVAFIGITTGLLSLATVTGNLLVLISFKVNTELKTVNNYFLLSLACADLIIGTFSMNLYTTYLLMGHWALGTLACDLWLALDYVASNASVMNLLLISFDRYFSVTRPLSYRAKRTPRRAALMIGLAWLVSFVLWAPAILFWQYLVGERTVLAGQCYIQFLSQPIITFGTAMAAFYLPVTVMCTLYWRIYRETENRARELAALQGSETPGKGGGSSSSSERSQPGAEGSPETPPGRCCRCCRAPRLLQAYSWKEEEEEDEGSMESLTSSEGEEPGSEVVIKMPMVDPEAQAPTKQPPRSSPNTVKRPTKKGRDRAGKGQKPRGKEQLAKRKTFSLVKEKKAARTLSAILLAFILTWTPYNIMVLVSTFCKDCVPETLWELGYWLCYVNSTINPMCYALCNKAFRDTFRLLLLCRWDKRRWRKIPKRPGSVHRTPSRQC
Procedure: as §1, §2

[4] = molecular target: T4, m2 muscarinic receptor subtype (Homo sapiens, UniProt P08172); test: R-SAT assay, muscarinic receptor subtype m2; format: cell-based; conditions: transfected NIH-3T3 cells, 5 days, relative to maximum response to carbachol
T4 construct: expressed in transfected cells; host or cells: NIH-3T3 (ATCC CRL 1658)
T4 sequence (P08172 1-466): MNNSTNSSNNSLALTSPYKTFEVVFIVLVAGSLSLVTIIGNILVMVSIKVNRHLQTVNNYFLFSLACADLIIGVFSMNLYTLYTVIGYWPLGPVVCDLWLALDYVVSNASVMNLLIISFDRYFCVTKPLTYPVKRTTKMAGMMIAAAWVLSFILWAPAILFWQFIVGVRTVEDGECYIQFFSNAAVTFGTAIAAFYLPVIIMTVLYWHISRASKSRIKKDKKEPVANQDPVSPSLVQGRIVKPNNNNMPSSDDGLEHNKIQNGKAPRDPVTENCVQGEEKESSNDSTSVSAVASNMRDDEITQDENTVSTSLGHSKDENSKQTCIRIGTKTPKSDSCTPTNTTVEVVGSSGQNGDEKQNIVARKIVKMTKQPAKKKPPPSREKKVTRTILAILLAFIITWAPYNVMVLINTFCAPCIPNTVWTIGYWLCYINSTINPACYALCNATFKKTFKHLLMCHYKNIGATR
Procedure: as §3, §2

Glaucomatous Monkeys = test: Intraocular pressure in glaucomatous monkeys (laser-induced unilateral ocular hypertension); format: in vivo, cynomolgus monkeys (Macacca fascicularis); conditions: conscious monkeys
Procedure: Effects of Compound 35AKU-21 on Intaocular Pressure in Primates. All studies were conducted in fully conscious female cynomolgus monkeys (Macacca fascicularis) weighing 3-4 kg. Unilateral ocular hypertension was produced by argon laser photocoagulation to the mid-trabecular meshwork (Sawyer & McGuigan, Invest. Ophthalmol. Vis. Sci. 29:81(1988)).
Animals were trained to allow measuring intraocular pressure (IOP) with a model 30 Classic pneumatonometer (Mentor O&O Co.). Throughout each study, monkeys sat in specially designed chairs (Primate Products, San Francisco) and fed fruits and juices as needed.
The drug was administered topically. The drug was formulated in an aqueous solution such as distilled water, saline or citrate buffer at a pH 5-7 and applied unilaterally as a 35 μL drop; the contralateral eye received an equal volume of saline (or vehicle). Two baseline measurements were made prior to administration of the drug, followed by periodic measurements up to 6 hours post drug administration.

[5] = molecular target: T5, m3 muscarinic receptor subtype (Homo sapiens, UniProt P20309); test: R-SAT assay, muscarinic receptor subtype m3; format: cell-based; conditions: transfected NIH-3T3 cells, 5 days, relative to maximum response to carbachol
T5 construct: expressed in transfected cells; host or cells: NIH-3T3 (ATCC CRL 1658)
Procedure: as §3, §2

[6] = in vivo; cited from earlier work

T5 sequence (P20309 whole entry): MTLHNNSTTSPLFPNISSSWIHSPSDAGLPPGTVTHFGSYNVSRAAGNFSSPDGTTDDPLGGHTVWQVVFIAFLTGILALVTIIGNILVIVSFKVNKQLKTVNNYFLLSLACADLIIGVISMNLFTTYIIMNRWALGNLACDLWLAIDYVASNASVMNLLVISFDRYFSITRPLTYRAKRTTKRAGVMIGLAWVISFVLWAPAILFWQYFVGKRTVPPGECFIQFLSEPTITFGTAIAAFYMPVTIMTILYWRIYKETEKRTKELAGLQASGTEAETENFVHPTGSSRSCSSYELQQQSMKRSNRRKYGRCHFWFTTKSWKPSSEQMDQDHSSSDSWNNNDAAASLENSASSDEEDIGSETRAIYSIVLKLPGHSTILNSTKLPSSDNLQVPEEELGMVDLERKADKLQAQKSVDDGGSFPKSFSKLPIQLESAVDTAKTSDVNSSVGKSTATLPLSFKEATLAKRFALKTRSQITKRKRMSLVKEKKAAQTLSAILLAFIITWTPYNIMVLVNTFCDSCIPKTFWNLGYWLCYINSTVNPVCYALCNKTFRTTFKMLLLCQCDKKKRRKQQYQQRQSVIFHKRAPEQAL

SMILES | m4 pEC50 [1] | m1 pEC50 [3] | m1 % Eff [3] [%] | m4 % Eff [1] | m5 % Eff [2] | m2 % Eff [4] | % IOP Change (Glaucomatous Monkeys; 1 HR after topical 35 μL drop) [%] | % IOP Change (Glaucomatous Monkeys; 2 HR after topical 35 μL drop) [%] | % IOP Change (Glaucomatous Monkeys; 4 HR after topical 35 μL drop) [%] | % IOP Change (Glaucomatous Monkeys; 6 HR after topical 35 μL drop) [%] | m3 % Eff [5] | patients with elevated liver transaminases (hepatotoxicity) [6]
CCCCC1CCN(CCCn2ncc3ccccc32)CC1 [Example 19, 1-(3-(4-n-Butylpiperidine)-1-yl-propyl)-4H-indazole] | 6.5 | 7.3 | 86 | 70% | no response (No response: Efficacy <25% maximum response of carbachol. This level of activity is not considered significantly different to no response.) | no response (No response: Efficacy <25% maximum response of carbachol. This level of activity is not considered significantly different to no response.) | −9.3 | −21.3 | −25.9 | −29.2 | no response (No response: Efficacy <25% maximum response of carbachol. This level of activity is not considered significantly different to no response.) | 
Nc1c2c(nc3ccccc13)CCCC2 [tacrine] |  |  |  |  |  |  |  |  |  |  |  | about 30%
CCCCC1CCN(CCCc2n[nH]c3ccccc23)CC1.Cl [Example 89, 3-[3-(4-Butyl-piperidine-1-yl)-propyl]1-H-indazole, HCl] | 6.8 | 7.3 | 85 | 53% | no response (No response: Efficacy <25% maximum response of carbachol. This level of activity is not considered significantly different to no response.) | no response (No response: Efficacy <25% maximum response of carbachol. This level of activity is not considered significantly different to no response.) |  |  |  |  | no response (No response: Efficacy <25% maximum response of carbachol. This level of activity is not considered significantly different to no response.) | 

Second part, led by results:

m4 pEC50 [1] | m1 pEC50 [3] | m1 % Eff [3] [%] | SMILES | m4 % Eff [1] | m5 % Eff [2] | m2 % Eff [4] | % IOP Change (Glaucomatous Monkeys; 1 HR after topical 35 μL drop) [%] | % IOP Change (Glaucomatous Monkeys; 2 HR after topical 35 μL drop) [%] | % IOP Change (Glaucomatous Monkeys; 4 HR after topical 35 μL drop) [%] | % IOP Change (Glaucomatous Monkeys; 6 HR after topical 35 μL drop) [%] | m3 % Eff [5] | patients with elevated liver transaminases (hepatotoxicity) [6]
 | 6.4 | 52 | CCCCC1CCN(CCCc2nc3c(C)cccc3[nH]2)CC1 [Example 32, 4-Methyl-2-(3-(4-n-butylpiperidine)-1-yl-propyl)-1H-benzoimidazole] | no response (No response: Efficacy <25% maximum response of carbachol. This level of activity is not considered significantly different to no response.) | no response (No response: Efficacy <25% maximum response of carbachol. This level of activity is not considered significantly different to no response.) | no response (No response: Efficacy <25% maximum response of carbachol. This level of activity is not considered significantly different to no response.) |  |  |  |  | no response (No response: Efficacy <25% maximum response of carbachol. This level of activity is not considered significantly different to no response.) | 
6.0 | 6.3 | 59 | CCCCC1CCN(CCCn2nnc3ccccc32)CC1 [Example 61, 1-[3-(4-Butylpiperidin-1-yl)-propyl]-1H-benzotriazole] | 39% | no response (No response: Efficacy <25% maximum response of carbachol. This level of activity is not considered significantly different to no response.) | no response (No response: Efficacy <25% maximum response of carbachol. This level of activity is not considered significantly different to no response.) |  |  |  |  | no response (No response: Efficacy <25% maximum response of carbachol. This level of activity is not considered significantly different to no response.) | 
